Assay results published in patent publication US10591485B2, “Peptide tags for fluorescent labelling of proteins” (UNIVERSITY OF OTTAWA, priority 2015, dated 2020).
Entries after “also recorded” stand apart in the source; their conditions may differ. Where a SMILES comes first, the peptide text is derived from it.

Assays:
[1] = Fluorogenic addition reaction kinetics of MBP-dC10 libraries I, II and III with dansyl-dM10 fluorogen 1, plate reader, 28° C.; type: biochemical; conditions: for reactivity of single mutants A17X (second order rate constant), in words: fluorogen 1, 50 μM equimolar, pH 7.5, 28° C., FIGS. 6 and 7; for increase in reactivity towards a dimaleimide fluorogen, triple mutants: fluorogen 1, relative to parent dC10, FIG. 10
Protocol: Library I with point mutants at position A17 is represented in dark grey, library II with double mutants A16-A17 is represented in light grey, and library III with triple mutants A3-A16-A17 is represented in black. The rate constant for parent MBP-dC10 is represented in white. All measurements were performed at least in duplicate. The reactivity of each single mutant of MBP-dC10 was evaluated through their reaction with dansyl-dM10 fluorogen 1 (Caron, K. et al., Org. Biomol. Chem., 9: 185-197, 2011), commonly used for test purposes. Equimolar concentrations of 50 μM of fluorogen 1 and MBP-dC10 variant were used in pH 7.5 buffer HEPES 50 mM, supplemented with 1 mM of TCEP reducing agent to reduce disulfide bonds that could form during protein purification or storage. […] Progress curves of the fluorogenic addition reaction were acquired with a plate reader that allowed us to study a large number of samples at the same time. Since the dansyl fluorophore is sensitive to its environment, the reaction of each MBP-dC10 variant led to an end point of slightly different fluorescence intensity. We used a simple second order kinetic model A+B→C where reactants A and B were used in equimolar concentrations. The product C is the only fluorescent species in the milieu and its appearance can be directly followed by increase of fluorescence. Use of this model implies that the second thiol addition is extremely fast due to its intramolecular character, and that the second order kinetic constant k2 depends exclusively on the first thiol addition. This reasonable approximation allowed us to evaluate very simply the overall dC10 reactivity modulated by the presence of stabilizing residues in the proximity of cysteines C6 and C13. Reactivity of each MBP-dC10 variant was assessed by determining the second order rate constant of the fluorogenic labelling reaction with a dansyl-dimaleimide fluorogenic molecule, referred to as dansyl-dM10 1 (FIG. 11). […] Biomol. Chem. 9: 185-197, 2011). Initial kinetic studies performed on MBP-dC10 histidine mutants S2H, R9H, A7H and S2H-A17H were done at the scale of 500 μL in the established conditions described below, using a Cary Eclipse Fluorimeter (Varian, Inc., Mississauga, Ontario, Canada) at 20° C. […] Libraries I, II and III were assayed using a plate reader: briefly, in a reaction scale of 200 μL, 50 μM MBP-dC10 (or variants) and 50 μM dansyl-dM10 1 were mixed in HEPES 50 mM pH 7.5 buffer in the presence of TCEP 1 mM. Fluorescence increase was followed at 28° C. long after completion of the reaction (2 hours) using the Synergy™ H4 Hybrid Multi-Mode Microplate Reader (BioTek, Winooski, Vt., United States) plate reader at 515 nm, upon excitation at 330 nm of the dansyl fluorophore of 1. Second order reaction constants were determined using the initial slope and the final plateau of each kinetic curve. All reactions were performed in duplicate to quadruplicate. For pH dependent kinetics, MBP-dC10 variants were dialysed into a buffer of desired pH, containing 50 mM of buffering salt (pH 7.50-8.00: HEPES; pH 8.25-8.75: Tris-HCl; pH 9.00: CHES) and 1 mM TCEP, overnight at 4° C., with gentle stirring. Fluorogenic reactions were performed in a plate reader as described above, in duplicate.

[2] = Kinetics of addition of fluorogen 1 to MBP-dC10 histidine mutants, Cary Eclipse fluorimeter, 20° C.; type: biochemical; conditions: fluorogen 1, 20° C., FIG. 4
Protocol: To start, we used fluorogen 1.
Reactivity of each MBP-dC10 variant was assessed by determining the second order rate constant of the fluorogenic labelling reaction with a dansyl-dimaleimide fluorogenic molecule, referred to as dansyl-dM10 1 (FIG. 11). Dansyl-dM10 was synthesized as described (Caron, K. et al., Org. Biomol. Chem. 9: 185-197, 2011). Initial kinetic studies performed on MBP-dC10 histidine mutants S2H, R9H, A7H and S2H-A17H were done at the scale of 500 μL in the established conditions described below, using a Cary Eclipse Fluorimeter (Varian, Inc., Mississauga, Ontario, Canada) at 20° C.

[3] = In vitro reactivity of dC10 and dC10* with fluorogen 4; type: biochemical; conditions: fluorogen 4, 50 μM equimolar, 28° C., FIG. 13
Protocol: (§1) Second order rate constant ratios are shown for fluorogen 3 (grey), and fluorogen 4 (black). Ratios were obtained by normalizing all rate constants to the rate constant of parent MBP-dC10. Absolute values of second order rate constants in M^−1min^−1 are shown for each fluorogen and dC10 or dC10*, and were obtained using equimolar concentration of 50 μM of fluorogen and test protein, at 28° C. Results were obtained at least in duplicate.
(§2) To extend the results shown above with fluorogens 1 and 2, we tested whether the labelling of dC10* (dC10-A3KA16RA17K) with other coumarin fluorogens would also show a kinetic advantage compared to dC10.

[4] = In vitro reactivity of dC10 and dC10* with fluorogen 3; type: biochemical; conditions: fluorogen 3, 50 μM equimolar, 28° C., FIG. 13
Protocol: as §1, §2

[5] = pH-rate profile of MBP-dC10 mutants with dansyl-dimaleimide fluorogen, pH 7.50-9.00; type: physicochemical; conditions: from horizontal displacement of best fit lines of pH-rate profile, FIG. 8
Description: A pH range between 7.50 and 9.00 was explored to determine the dependence of the second order rate constant on pH. Only several mutants from libraries II and III were chosen for this pH study: Triple mutants containing lysine and arginine (black line), triple mutants containing histidine and lysine or arginine (light grey line), double mutants (dark grey line) and parent dC10 (dashed line).
Considering the relative reactivity of the members of all three mutant libraries, additional studies were undertaken to attempt to quantify the effect of positively charged residues on the acidity of the cysteine residue thiol groups. […]
Libraries I, II and III were assayed using a plate reader: briefly, in a reaction scale of 200 μL, 50 μM MBP-dC10 (or variants) and 50 μM dansyl-dM10 1 were mixed in HEPES 50 mM pH 7.5 buffer in the presence of TCEP 1 mM. Fluorescence increase was followed at 28° C. long after completion of the reaction (2 hours) using the Synergy™ H4 Hybrid Multi-Mode Microplate Reader (BioTek, Winooski, Vt., United States) plate reader at 515 nm, upon excitation at 330 nm of the dansyl fluorophore of 1. Second order reaction constants were determined using the initial slope and the final plateau of each kinetic curve. […] Fluorogenic reactions were performed in a plate reader as described above, in duplicate.

**Q.** With “L1SAAECAAREAACREAHARAGGK23 (LSAAECAAREAACREAHARAGGK) [dC10-A17H]” as the compound, how does the “reactivity of single mutants A17X (second order rate constant), in words” value [1] read?
**A.** reacts faster than the parent dC10 peptide tag; also recorded: does not react as fast as the A17K mutant

**Q.** Which “increase in reactivity towards a dimaleimide fluorogen, triple mutants” value (“increase” below) [1] does the source give for “L1SKAECAAREAACREKKARAGGK23 (LSKAECAAREAACREKKARAGGK) [dC10-A3KA16KA17K]” here?
**A.** ~10 fold

**Q.** For “L1SAAECAAREAACREAKARAGGK23 (LSAAECAAREAACREAKARAGGK) [dC10-A17K]”, which “reactivity of single mutants A17X (second order rate constant), in words” value [1] is on record?
**A.** best dC10 single mutant

**Q.** Which “reactivity (second order kinetic constant) compared with parent dC10” value (“reactivity … compared with parent dC10” below) [2] does the source give for “L1HAAECAAREAACREAHARAGGK23 (LHAAECAAREAACREAHARAGGK) [dC10-S2HA17H]” here?
**A.** more reactive than the parent dC10

**Q.** For “L1SRAECAAREAACRERKARAGGK23 (LSRAECAAREAACRERKARAGGK) [dC10-A3RA16RA17K]”, which “increase” value [1] is on record?
**A.** ~10 fold

**Q.** For “L1SRAECAAREAACREKKARAGGK23 (LSRAECAAREAACREKKARAGGK) [dC10-A3RA16KA17K]”, which “increase” value [1] is on record?
**A.** ~10 fold

**Q.** Which “reactivity … compared with parent dC10” value [2] does the source give for “L1HAAECAAREAACREAAARAGGK23 (LHAAECAAREAACREAAARAGGK) [dC10-S2H]” here?
**A.** did not appear to be more reactive than dC10

**Q.** Which “reactivity … compared with parent dC10” value [2] does the source give for “L1SAAECAAHEAACREAAARAGGK23 (LSAAECAAHEAACREAAARAGGK) [dC10-R9H]” here?
**A.** did not appear to be more reactive than dC10

**Q.** With “L1SAAECAAREAACREHKARAGGK23 (LSAAECAAREAACREHKARAGGK) [dC10-A16HA17K]” as the compound, how does the “reactivity compared among double mutants A16X-A17K” value ([1]; fluorogen 1, FIG. 10) read?
**A.** not as reactive as double mutants A16K-A17K and A16R-A17K

**Q.** What does the source list for “L1SAAECAAREAACREAAARAGGK23 (LSAAECAAREAACREAAARAGGK) [dC10, previously described parent dicysteine alpha-helical peptide tag]”?
**A.** rate enhancement compared to dC10 [3]: 2 fold; rate enhancement compared to dC10 [4]: 4 fold

**Q.** For CC(C)C[C@H](N)C(=O)N[C@@H](CO)C(=O)N[C@@H](CCCCN)C(=O)N[C@@H](C)C(=O)N[C@@H](CCC(=O)O)C(=O)N[C@@H](CS)C(=O)N[C@@H](C)C(=O)N[C@@H](C)C(=O)N[C@@H](CCCNC(=N)N)C(=O)N[C@@H](CCC(=O)O)C(=O)N[C@@H](C)C(=O)N[C@@H](C)C(=O)N[C@@H](CS)C(=O)N[C@@H](CCCNC(=N)N)C(=O)N[C@@H](CCC(=O)O)C(=O)N[C@@H](CCCNC(=N)N)C(=O)N[C@@H](CCCCN)C(=O)N[C@@H](C)C(=O)N[C@@H](CCCNC(=N)N)C(=O)N[C@@H](C)C(=O)NCC(=O)NCC(=O)N[C@@H](CCCCN)C(=O)O [dC10-A3KA16RA17K] (H-LSKAECAAREAACRERKARAGGK-OH; N-terminus and C-terminus assumed), which “pKa lower than that of the parent dC10 sequence” value [5] is on record?
**A.** 0.70 units

**Q.** Which “reactivity … compared with parent dC10” value [2] does the source give for “L1SAAECHAREAACREAAARAGGK23 (LSAAECHAREAACREAAARAGGK) [dC10-A7H]” here?
**A.** did not appear to be more reactive than dC10
